# According to patent US20180042943A1, “METHODS FOR MODULATING BONE DENSITY” (Intercept Pharmaceuticals, Inc., priority 2015, published 2018):
# “Also recorded” adds a separate entry of the source.
# Legend:
# [1] = DEXA scan of the femoral neck (T-score, Z-score, BMD) in PBC subjects, 12 months OCA or placebo; type: in vivo, human; conditions: for Femoral Neck Scan: Bone Mineral Density, Change From Baseline, Mean / Femoral Neck Scan: Bone Mineral Density, Change From Baseline, Median / Femoral Neck Scan: Bone Mineral Density, Result, Mean / Femoral Neck Scan: Bone Mineral Density, Result, Median / Femoral Neck Scan: T-Score, Change From Baseline, Mean / Femoral Neck Scan: T-Score, Change From Baseline, Median / Femoral Neck Scan: T-Score, Result, Mean / Femoral Neck Scan: T-Score, Result, Median / Femoral Neck Scan: Z-Score, Change From Baseline, Mean / Femoral Neck Scan: Z-Score, Change From Baseline, Median / Femoral Neck Scan: Z-Score, Result, Mean / Femoral Neck Scan: Z-Score, Result, Median / Femoral Neck Scan: Bone Mineral Density, Change From Baseline, LS Mean / Femoral Neck Scan: Bone Mineral Density, Change From Baseline, OCA - Placebo mean difference / Femoral Neck Scan: T-Score, Change From Baseline, LS Mean / Femoral Neck Scan: T-Score, Change From Baseline, OCA - Placebo mean difference / Femoral Neck Scan: Z-Score, Change From Baseline, LS Mean / Femoral Neck Scan: Z-Score, Change From Baseline, OCA - Placebo mean difference: orally once daily, DB Month 12, subjects with PBC; for Femoral Neck Scan: Bone Mineral Density, Change From Baseline, LS Mean / Femoral Neck Scan: Bone Mineral Density, Change From Baseline, OCA - Placebo mean difference / Femoral Neck Scan: T-Score, Change From Baseline, LS Mean / Femoral Neck Scan: T-Score, Change From Baseline, OCA - Placebo mean difference / Femoral Neck Scan: Z-Score, Change From Baseline, LS Mean / Femoral Neck Scan: Z-Score, Change From Baseline, OCA - Placebo mean difference: ANCOVA
# Experimental: (§1) PBC patients are randomized to three groups: (a) placebo (PCB), (b) 10 mg OCA, or (c) 5 mg (month 0-6) titrating to 10 mg (month 7-12) OCA. Study medication is administered orally, once daily for 12 months. For patients under pretreatment ursodeoxycholic acid (UDCA) treatment, the pre-treatment dose of UDCA is continued throughout their treatment. Bone density is measured by DEXA scans. DEXA scans of the lumbar spine and femoral neck are conducted at Day 0 and Month 12. Additional measurement may be conducted after Month 12 (e.g., annually after Month 12) as necessary and appropriate. The timing of the DEXA scans is not critical, and may be conducted±2 weeks. […] Subjects with PBC±UDCA (if taking UDCA, patients were maintained on a stable dose) with ALP≧1.67×ULN or bilirubin<2×ULN were randomized to placebo (PBO), OCA 5 or 10 mg for 12 months. Subjects on 5 mg were titrated to 10 mg after 6 months (OCA Titration) based on clinical response and tolerability. Dual-emission X-ray absorptiometry (DEXA) scan was used to assess BMD in a subset of subjects prior to and following 12 months of OCA or placebo treatment. Changes from baseline at Month 12 were analyzed using an ANCOVA model with baseline values as a covariate. Osteopenia and osteoporosis were based on WHO thresholds: T score −1.0 to ≦−2.5 […].
# [2] = DEXA scan of the lumbar spine (T-score, Z-score, BMD) in PBC subjects, 12 months OCA or placebo; type: in vivo, human; conditions: for Lumbar Spine Scan: Bone Mineral Density, Change From Baseline, Mean / Lumbar Spine Scan: Bone Mineral Density, Change From Baseline, Median / Lumbar Spine Scan: Bone Mineral Density, Result, Mean / Lumbar Spine Scan: Bone Mineral Density, Result, Median / Lumbar Spine Scan: T-Score, Change From Baseline, Mean / Lumbar Spine Scan: T-Score, Change From Baseline, Median / Lumbar Spine Scan: T-Score, Result, Mean / Lumbar Spine Scan: T-Score, Result, Median / Lumbar Spine Scan: Z-Score, Change From Baseline, Mean / Lumbar Spine Scan: Z-Score, Change From Baseline, Median / Lumbar Spine Scan: Z-Score, Result, Mean / Lumbar Spine Scan: Z-Score, Result, Median / Lumbar Spine Scan: Bone Mineral Density, Change From Baseline, LS Mean / Lumbar Spine Scan: Bone Mineral Density, Change From Baseline, OCA - Placebo mean difference / Lumbar Spine Scan: T-Score, Change From Baseline, LS Mean / Lumbar Spine Scan: T-Score, Change From Baseline, OCA - Placebo mean difference / Lumbar Spine Scan: Z-Score, Change From Baseline, LS Mean / Lumbar Spine Scan: Z-Score, Change From Baseline, OCA - Placebo mean difference: orally once daily, DB Month 12, subjects with PBC; for Lumbar Spine Scan: Bone Mineral Density, Change From Baseline, LS Mean / Lumbar Spine Scan: Bone Mineral Density, Change From Baseline, OCA - Placebo mean difference / Lumbar Spine Scan: T-Score, Change From Baseline, LS Mean / Lumbar Spine Scan: T-Score, Change From Baseline, OCA - Placebo mean difference / Lumbar Spine Scan: Z-Score, Change From Baseline, LS Mean / Lumbar Spine Scan: Z-Score, Change From Baseline, OCA - Placebo mean difference: ANCOVA
# Experimental: as §1
# [3] = Titration OCA (5 mg, titrated to 10 mg after 6 months)
compound,measurement,setting,value
"CC[C@H]1[C@@H](O)[C@@H]2[C@H](CC[C@]3(C)[C@@H]([C@H](C)CCC(=O)O)CC[C@@H]23)[C@@]2(C)CC[C@@H](O)C[C@@H]12 [OCA, 3α,7α-dihydroxy-6α-ethyl-5β-cholan-24-oic acid]","Femoral Neck Scan: Bone Mineral Density, Change From Baseline, Mean",[1]; 10 mg OCA,−0.034 g/cm^2
same,"Femoral Neck Scan: Bone Mineral Density, Change From Baseline, Median",[1]; 10 mg OCA,−0.018 g/cm^2
same,"Femoral Neck Scan: Bone Mineral Density, Result, Mean",[1]; 10 mg OCA,0.813 g/cm^2
same,"Femoral Neck Scan: Bone Mineral Density, Result, Median",[1]; 10 mg OCA,0.779 g/cm^2
same,"Femoral Neck Scan: T-Score, Change From Baseline, Mean",[1]; 10 mg OCA,−0.11
same,"Femoral Neck Scan: T-Score, Change From Baseline, Median",[1]; 10 mg OCA,−0.10
same,"Femoral Neck Scan: T-Score, Result, Mean",[1]; 10 mg OCA,−1.06
same,"Femoral Neck Scan: T-Score, Result, Median",[1]; 10 mg OCA,−1.05
same,"Femoral Neck Scan: Z-Score, Change From Baseline, Mean",[1]; 10 mg OCA,−0.06
same,"Femoral Neck Scan: Z-Score, Change From Baseline, Median",[1]; 10 mg OCA,0.00
same,"Femoral Neck Scan: Z-Score, Result, Mean",[1]; 10 mg OCA,−0.01
same,"Femoral Neck Scan: Z-Score, Result, Median",[1]; 10 mg OCA,−0.10
same,"Femoral Neck Scan: Bone Mineral Density, Change From Baseline, LS Mean",[1]; 10 mg OCA,−0.04 g/cm^2
same,"Femoral Neck Scan: Bone Mineral Density, Change From Baseline, OCA - Placebo mean difference",[1]; 10 mg OCA,−0.02 g/cm^2
same,"Femoral Neck Scan: T-Score, Change From Baseline, LS Mean",[1]; 10 mg OCA,−0.07
same,"Femoral Neck Scan: T-Score, Change From Baseline, OCA - Placebo mean difference",[1]; 10 mg OCA,0.26
same,"Femoral Neck Scan: Z-Score, Change From Baseline, LS Mean",[1]; 10 mg OCA,−0.07
same,"Femoral Neck Scan: Z-Score, Change From Baseline, OCA - Placebo mean difference",[1]; 10 mg OCA,0.05
same,"Femoral Neck Scan: Bone Mineral Density, Change From Baseline, Mean",[1]; [3],−0.003 g/cm^2
same,"Femoral Neck Scan: Bone Mineral Density, Change From Baseline, Median",[1]; [3],−0.004 g/cm^2
same,"Femoral Neck Scan: Bone Mineral Density, Result, Mean",[1]; [3],0.809 g/cm^2
same,"Femoral Neck Scan: Bone Mineral Density, Result, Median",[1]; [3],0.822 g/cm^2
same,"Femoral Neck Scan: T-Score, Change From Baseline, Mean",[1]; [3],−0.03
same,"Femoral Neck Scan: T-Score, Change From Baseline, Median",[1]; [3],−0.05
same,"Femoral Neck Scan: T-Score, Result, Mean",[1]; [3],−1.28
same,"Femoral Neck Scan: T-Score, Result, Median",[1]; [3],−1.45
same,"Femoral Neck Scan: Z-Score, Change From Baseline, Mean",[1]; [3],0.01
same,"Femoral Neck Scan: Z-Score, Change From Baseline, Median",[1]; [3],0.00
same,"Femoral Neck Scan: Z-Score, Result, Mean",[1]; [3],−0.23
same,"Femoral Neck Scan: Z-Score, Result, Median",[1]; [3],−0.45
same,"Femoral Neck Scan: Bone Mineral Density, Change From Baseline, LS Mean",[1]; [3],−0.01 g/cm^2
same,"Femoral Neck Scan: Bone Mineral Density, Change From Baseline, OCA - Placebo mean difference",[1]; [3],0.01 g/cm^2
same,"Femoral Neck Scan: T-Score, Change From Baseline, LS Mean",[1]; [3],−0.06
same,"Femoral Neck Scan: T-Score, Change From Baseline, OCA - Placebo mean difference",[1]; [3],0.27
same,"Femoral Neck Scan: Z-Score, Change From Baseline, LS Mean",[1]; [3],−0.01
same,"Femoral Neck Scan: Z-Score, Change From Baseline, OCA - Placebo mean difference",[1]; [3],0.10
same,decrease in femoral bone mineral density T-score versus placebo,"[1]; both OCA groups, Baseline to Month 12, subjects with PBC, p<0.05",smaller decrease
same,"Lumbar Spine Scan: Bone Mineral Density, Change From Baseline, Mean",[2]; 10 mg OCA,−0.012 g/cm^2
same,"Lumbar Spine Scan: Bone Mineral Density, Change From Baseline, Median",[2]; 10 mg OCA,−0.013 g/cm^2
same,"Lumbar Spine Scan: Bone Mineral Density, Result, Mean",[2]; 10 mg OCA,1.003 g/cm^2
same,"Lumbar Spine Scan: Bone Mineral Density, Result, Median",[2]; 10 mg OCA,0.976 g/cm^2
same,"Lumbar Spine Scan: T-Score, Change From Baseline, Mean",[2]; 10 mg OCA,−0.17
same,"Lumbar Spine Scan: T-Score, Change From Baseline, Median",[2]; 10 mg OCA,−0.10
same,"Lumbar Spine Scan: T-Score, Result, Mean",[2]; 10 mg OCA,−1.02
same,"Lumbar Spine Scan: T-Score, Result, Median",[2]; 10 mg OCA,−1.20
same,"Lumbar Spine Scan: Z-Score, Change From Baseline, Mean",[2]; 10 mg OCA,−0.03
same,"Lumbar Spine Scan: Z-Score, Change From Baseline, Median",[2]; 10 mg OCA,0.00
same,"Lumbar Spine Scan: Z-Score, Result, Mean",[2]; 10 mg OCA,0.01
same,"Lumbar Spine Scan: Z-Score, Result, Median",[2]; 10 mg OCA,0.00
same,"Lumbar Spine Scan: Bone Mineral Density, Change From Baseline, LS Mean",[2]; 10 mg OCA,−0.01 g/cm^2
same,"Lumbar Spine Scan: Bone Mineral Density, Change From Baseline, OCA - Placebo mean difference",[2]; 10 mg OCA,0.00 g/cm^2
same,"Lumbar Spine Scan: T-Score, Change From Baseline, LS Mean",[2]; 10 mg OCA,−0.09
same,"Lumbar Spine Scan: T-Score, Change From Baseline, OCA - Placebo mean difference",[2]; 10 mg OCA,0.16
same,"Lumbar Spine Scan: Z-Score, Change From Baseline, LS Mean",[2]; 10 mg OCA,−0.03
same,"Lumbar Spine Scan: Z-Score, Change From Baseline, OCA - Placebo mean difference",[2]; 10 mg OCA,−0.05
same,"Lumbar Spine Scan: Bone Mineral Density, Change From Baseline, Mean",[2]; [3],−0.014 g/cm^2
same,"Lumbar Spine Scan: Bone Mineral Density, Change From Baseline, Median",[2]; [3],−0.007 g/cm^2
same,"Lumbar Spine Scan: Bone Mineral Density, Result, Mean",[2]; [3],1.013 g/cm^2
same,"Lumbar Spine Scan: Bone Mineral Density, Result, Median",[2]; [3],0.994 g/cm^2
same,"Lumbar Spine Scan: T-Score, Change From Baseline, Mean",[2]; [3],−0.06
same,"Lumbar Spine Scan: T-Score, Change From Baseline, Median",[2]; [3],0.00
same,"Lumbar Spine Scan: T-Score, Result, Mean",[2]; [3],−1.10
same,"Lumbar Spine Scan: T-Score, Result, Median",[2]; [3],−1.35
same,"Lumbar Spine Scan: Z-Score, Change From Baseline, Mean",[2]; [3],0.00
same,"Lumbar Spine Scan: Z-Score, Change From Baseline, Median",[2]; [3],0.00
same,"Lumbar Spine Scan: Z-Score, Result, Mean",[2]; [3],0.02
same,"Lumbar Spine Scan: Z-Score, Result, Median",[2]; [3],−0.20
same,"Lumbar Spine Scan: Bone Mineral Density, Change From Baseline, LS Mean",[2]; [3],−0.01 g/cm^2
same,"Lumbar Spine Scan: Bone Mineral Density, Change From Baseline, OCA - Placebo mean difference",[2]; [3],−0.01 g/cm^2
same,"Lumbar Spine Scan: T-Score, Change From Baseline, LS Mean",[2]; [3],−0.01
same,"Lumbar Spine Scan: T-Score, Change From Baseline, OCA - Placebo mean difference",[2]; [3],0.25
same,"Lumbar Spine Scan: Z-Score, Change From Baseline, LS Mean",[2]; [3],0.00
same,"Lumbar Spine Scan: Z-Score, Change From Baseline, OCA - Placebo mean difference",[2]; [3],−0.01
same,"Lumbar bone mineral density change, OCA groups versus placebo","[2]; both OCA groups, Baseline to Month 12, subjects with PBC",No significant difference; also recorded: not significant
